Data published in US20040037860A1, “Free nicotine based cosmetic composition and uses thereof” (COLUMBUS, priority 2001, published 2004).

Assays:
[1] = tested on: localized gynoid lipodystrophy of the thighs and of the buttocks (LGL); details: small dose, topical
Method: The applicant carried out a comparative trial intended to evaluate the efficacy of the composition of the invention, as a local topical application, in patients with gynoid lipodystrophy of the thighs and of the buttocks, in comparison with a placebo, considered as a control group. Concomitantly, the effects of the composition on the softness and firmness of the skin were assessed.
It is a randomized comparative double blind monocenter trial comprising two groups of treatment of localized gynoid lipodystrophy of the thighs and of the buttocks (LGL):
This trial lasted for 9 weeks and comprised a one-week inclusion phase, followed by an 8-week treatment phase. It was carried out in patients suffering from LGL.
Evaluation carried out during the inclusion visit, at D28, and at the final visit for the principal and secondary criteria.
1.-Measurement of the adipose panicle by ultrasound scan, measured with the aid of a wide probe, by looking at the great trochanter of each femur.
The probe was placed on a tripod, at the constant level of the ground for each subject. The measurement was carried out after acquiring the last possible image by detaching the probe from the skin plane.

[2] = no significant difference in weight versus placebo at D28 or D56

CN1CCCC1c1cccnc1 (centres unmarked) [Nicotine, nicotine]
reduction of the thickness of localized gynoid lipodystrophy (cellulite), on average [1]: 8.9%
overall slimming effect [2]: no overall slimming effect
